Each structure is given as a SMILES string.

For the experiment, the target named is T1, human calcium-sensing receptor (CaSR) (Homo sapiens, UniProt P41180).
T1 construct: expressed in transfected cells
T1 sequence (P41180 20-1078): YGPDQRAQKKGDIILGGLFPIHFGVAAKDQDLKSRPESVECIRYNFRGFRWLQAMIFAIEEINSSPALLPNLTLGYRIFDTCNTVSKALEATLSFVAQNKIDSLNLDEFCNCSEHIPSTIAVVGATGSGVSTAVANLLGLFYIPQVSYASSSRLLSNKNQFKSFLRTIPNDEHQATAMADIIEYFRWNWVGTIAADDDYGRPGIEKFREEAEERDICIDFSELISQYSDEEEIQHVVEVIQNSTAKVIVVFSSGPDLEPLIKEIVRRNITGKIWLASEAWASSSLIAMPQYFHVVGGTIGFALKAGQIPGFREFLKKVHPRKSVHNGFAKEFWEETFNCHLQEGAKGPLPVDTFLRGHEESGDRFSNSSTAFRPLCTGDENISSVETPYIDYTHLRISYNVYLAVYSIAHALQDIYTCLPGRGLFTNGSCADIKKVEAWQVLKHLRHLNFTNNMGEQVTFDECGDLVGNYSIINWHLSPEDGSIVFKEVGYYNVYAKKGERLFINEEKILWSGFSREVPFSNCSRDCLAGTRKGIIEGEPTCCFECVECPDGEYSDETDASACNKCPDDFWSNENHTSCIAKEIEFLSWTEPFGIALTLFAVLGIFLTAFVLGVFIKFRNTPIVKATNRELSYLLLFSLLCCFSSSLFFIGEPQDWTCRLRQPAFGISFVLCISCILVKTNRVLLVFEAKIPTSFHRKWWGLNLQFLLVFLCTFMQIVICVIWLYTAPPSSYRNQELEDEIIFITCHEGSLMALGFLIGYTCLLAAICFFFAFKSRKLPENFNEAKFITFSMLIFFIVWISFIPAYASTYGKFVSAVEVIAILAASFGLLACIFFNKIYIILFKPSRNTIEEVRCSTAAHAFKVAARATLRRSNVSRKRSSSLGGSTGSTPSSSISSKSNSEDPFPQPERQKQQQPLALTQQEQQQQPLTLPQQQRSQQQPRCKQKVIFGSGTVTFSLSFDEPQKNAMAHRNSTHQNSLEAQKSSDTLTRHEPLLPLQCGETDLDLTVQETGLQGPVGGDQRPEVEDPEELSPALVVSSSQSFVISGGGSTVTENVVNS
Put plainly: intracellular Ca assay, CaSR antagonist activity in HEK293/hCaSR cells. It is filed as cell-based. To be noted: Fura2-AM, inhibition of response to calcium chloride ligand solution, read-out: IC50 values according to the intracellular Ca assay (CaSR antagonist activity). A digest of the protocol: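 HEK293/hCaSR cells were loaded with Fura2-AM and pre-incubated with compound for 160 s at 37° C in HEPES buffer (pH 7.4, 0.8 mM CaCl2), then challenged with calcium ligand solution. Read-out was the peak 340/380 nm fluorescence ratio; inhibition is relative to no-compound (0%) and no-calcium-ligand (100%) controls.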
What is called IC50 is the midpoint of a concentration-inhibition curve. In the case of `CN(C[C@H](O)CNC(C)(C)CC1Cc2ccccc2C1)S(=O)(=O)c1cccc(-c2ccc(C(=O)O)cc2F)c1` [Exp. 3-55, (R)-3′-(N-(3-(1-(2,3-dihydro-1H-inden-2-yl)-2-methylpropan-2-ylamino)-2-hydroxypropyl)-N-methylsulfamoyl)-2-fluorobiphenyl-4-carboxylic acid], the IC50 was not above 0.3 µM. To `CN(C[C@H](O)CNC(C)(C)CC1Cc2ccccc2C1)S(=O)(=O)c1cccc(-c2ccc(C=CC(=O)O)cc2)c1` [Exp. 3-56, (R)-3-(3′-(N-(3-(1-(2,3-dihydro-1H-inden-2-yl)-2-methylpropan-2-ylamino)-2-hydroxypropyl)-N-methylsulfamoyl)biphenyl-4-yl)acrylic acid] belongs 0.3 to 1 µM; to `CN(C[C@H](O)CNC(C)(C)CC1Cc2ccccc2C1)S(=O)(=O)c1cccc(-c2cccc(C=CC(=O)O)c2)c1` [Exp. 3-58, (R)-3-(3′-(N-(3-(1-(2,3-dihydro-1H-inden-2-yl)-2-methylpropan-2-ylamino)-2-hydroxypropyl)-N-methylsulfamoyl)biphenyl-3-yl)acrylic acid], not above 0.3 µM; to `CN(C[C@H](O)CNC(C)(C)CC1Cc2ccccc2C1)S(=O)(=O)c1cccc(-c2ccc(NC(=O)CCC(=O)O)cc2)c1` [Exp. 3-59, (R)-4-(3′-(N-(3-(1-(2,3-dihydro-1H-inden-2-yl)-2-methylpropan-2-ylamino)-2-hydroxypropyl)-N-methylsulfamoyl)biphenyl-4-ylamino)-4-oxobutanoic acid], not above 0.3 µM. To `CN(C[C@H](O)CNC(C)(C)CC1Cc2ccccc2C1)S(=O)(=O)c1cccc(-c2cc(F)cc(C(=O)O)c2)c1` [Exp. 3-60, (R)-3′-(N-(3-(1-(2,3-dihydro-1H-inden-2-yl)-2-methylpropan-2-ylamino)-2-hydroxypropyl)-N-methylsulfamoyl)-5-fluorobiphenyl-3-carboxylic acid] belongs not above 0.3 µM. To `Cc1ccc(CC(C)(C)NC[C@@H](O)CN(C)S(=O)(=O)c2cccc(-c3cccc(C(=O)O)c3)c2)cc1F` [Exp. 3-63, (R)-3′-(N-(3-(1-(3-fluoro-4-methylphenyl)-2-methylpropan-2-ylamino)-2-hydroxypropyl)-N-methylsulfamoyl)biphenyl-3-carboxylic acid] belongs 1 to 3 µM. In the case of `Cc1ccc(CC(C)(C)NC[C@@H](O)CN(C)S(=O)(=O)c2cccc(-c3ccc(C(=O)O)cc3F)c2)cc1F` [Exp. 3-67, (R)-2-fluoro-3′-(N-(3-(1-(3-fluoro-4-methylphenyl)-2-methylpropan-2-ylamino)-2-hydroxypropyl)-N-methylsulfamoyl)biphenyl-4-carboxylic acid], the half-inhibitory concentration (IC50) lay in the range of 0.3 to 1 µM. To `Cc1ccc(CC(C)(C)NC[C@@H](O)CN(C)S(=O)(=O)c2cccc(-c3cc(F)cc(C(=O)O)c3)c2)cc1F` [Exp. 3-71, (R)-5-fluoro-3′-(N-(3-(1-(3-fluoro-4-methylphenyl)-2-methylpropan-2-ylamino)-2-hydroxypropyl)-N-methylsulfamoyl)biphenyl-3-carboxylic acid] belongs 1 to 3 µM; to `CN(C[C@H](O)CNC(C)(C)Cc1ccc(Cl)c(F)c1)S(=O)(=O)c1cccc(-c2ccc(C(=O)O)cc2F)c1` [Exp. 3-76, (R)-3′-(N-(3-(1-(4-chloro-3-fluorophenyl)-2-methylpropan-2-ylamino)-2-hydroxypropyl)-N-methylsulfamoyl)-2-fluorobiphenyl-4-carboxylic acid], 1 to 3 µM; to `CN(C[C@H](O)CNC(C)(C)Cc1ccc(Cl)c(F)c1)S(=O)(=O)c1cccc(-c2ccc(CCC(=O)O)cc2)c1` [Exp. 3-78, (R)-3-(3′-(N-(3-(1-(4-chloro-3-fluorophenyl)-2-methylpropan-2-ylamino)-2-hydroxypropyl)-N-methylsulfamoyl)biphenyl-4-yl)propionic acid], 1 to 3 µM.

Take `Cc1cc(-c2ccccc2CS(=O)(=O)N(C)C[C@H](O)CNC(C)(C)Cc2ccc3ccccc3c2)ccc1C(=O)O` [Exp. 3-81, (R)-2′-((N-(2-hydroxy-3-(2-methyl-1-(naphthalen-2-yl)propan-2-ylamino)propyl)-N-methylsulfamoyl)methyl)-3-methylbiphenyl-4-carboxylic acid]: the concentration for half-maximal inhibition (IC50) lay in the range of 0.3 to 1 µM. To `CN(C[C@H](O)CNC(C)(C)Cc1ccc2ccccc2c1)S(=O)(=O)Cc1ccccc1-c1cccc(C=CC(=O)O)c1` [Exp. 3-84, (R)-3-(2′-((N-(2-hydroxy-3-(2-methyl-1-(naphthalen-2-yl)propan-2-ylamino)propyl)-N-methylsulfamoyl)methyl)biphenyl-3-yl)acrylic acid] belongs 1 to 3 µM; to `CN(C[C@H](O)CNC(C)(C)Cc1ccc2ccccc2c1)S(=O)(=O)Cc1ccccc1-c1cc(F)cc(C(=O)O)c1` [Exp. 3-85, (R)-5-fluoro-2′-((N-(2-hydroxy-3-(2-methyl-1-(naphthalen-2-yl)propan-2-ylamino)propyl)-N-methylsulfamoyl)methyl)biphenyl-3-carboxylic acid], 1 to 3 µM; to `CN(C[C@H](O)CNC(C)(C)Cc1ccc2ccccc2c1)S(=O)(=O)Cc1cccc(-c2ccc(C=CC(=O)O)cc2)c1` [Exp. 3-86, (R)-3-(3′-((N-(2-hydroxy-3-(2-methyl-1-(naphthalen-2-yl)propan-2-ylamino)propyl)-N-methylsulfamoyl)methyl)biphenyl-4-yl)acrylic acid], 0.3 to 1 µM.

For the compound `CN(C[C@H](O)CNC(C)(C)Cc1ccc2ccccc2c1)S(=O)(=O)Cc1cccc(-c2ccc(CCC(=O)O)cc2)c1` [Exp. 3-87, (R)-3-(3′-((N-(2-hydroxy-3-(2-methyl-1-(naphthalen-2-yl)propan-2-ylamino)propyl)-N-methylsulfamoyl)methyl)biphenyl-4-yl)propionic acid], the IC50 lay in the range of 1 to 3 µM. As to `CN(C[C@H](O)CNC(C)(C)Cc1ccc2ccccc2c1)S(=O)(=O)Cc1ccc(-c2ccc(CCC(=O)O)cc2)cc1` [Exp. 3-90, (R)-3-(4′-((N-(2-hydroxy-3-(2-methyl-1-(naphthalen-2-yl)propan-2-ylamino)propyl)-N-methylsulfamoyl)methyl)biphenyl-4-yl)propionic acid], the half-inhibitory concentration (IC50) fell in the range of 1 to 3 µM. To `CN(C[C@H](O)CNC(C)(C)Cc1ccc2ccccc2c1)S(=O)(=O)Cc1ccc(-c2cccc(C=CC(=O)O)c2)cc1` [Exp. 3-91, (R)-3-(4′-((N-(2-hydroxy-3-(2-methyl-1-(naphthalen-2-yl)propan-2-ylamino)propyl)-N-methylsulfamoyl)methyl)biphenyl-3-yl)acrylic acid] belongs 1 to 3 µM; to `Cc1c(C(=O)O)cccc1-c1cccc(S(=O)(=O)N(C)C[C@H](O)CNC(C)(C)CC2Cc3ccccc3C2)c1` [Exp. 3-92, (R)-3′-(N-(3-(1-(2,3-dihydro-1H-inden-2-yl)-2-methylpropan-2-ylamino)-2-hydroxypropyl)-N-methylsulfamoyl)-2-methylbiphenyl-3-carboxylic acid], not above 0.3 µM; to `CN(C[C@H](O)CNC(C)(C)CCCc1ccccc1)S(=O)(=O)c1ccc(-c2ccc(CCC(=O)O)cc2)c(Cl)c1` [Exp. 3-114, (R)-3-(2′-chloro-4′-(N-(2-hydroxy-3-(2-methyl-5-phenylpentan-2-ylamino)propyl)-N-methylsulfamoyl)biphenyl-4-yl)propionic acid], not above 0.3 µM. To `CCc1cc(-c2ccc(CCC(=O)O)cc2)ccc1S(=O)(=O)N(C)C[C@H](O)CNC(C)(C)CCCc1ccccc1` [Exp. 3-116, (R)-3-(3′-ethyl-4′-(N-(2-hydroxy-3-(2-methyl-5-phenylpentan-2-ylamino)propyl)-N-methylsulfamoyl)biphenyl-4-yl)propionic acid] belongs not above 0.3 µM. Consider `CN(C[C@H](O)CNC(C)(C)CC1Cc2ccccc2C1)S(=O)(=O)c1ccc(-c2cccc(C(=O)O)c2)cc1C(F)(F)F` [Exp. 3-124, (R)-4′-(N-(3-(1-(2,3-dihydro-1H-inden-2-yl)-2-methylpropan-2-ylamino)-2-hydroxypropyl)-N-methylsulfamoyl)-3′-(trifluoromethyl)biphenyl-3-carboxylic acid], for which the IC50 is not above 0.3 µM. Consider `CN(C[C@H](O)CNC(C)(C)CC1Cc2ccccc2C1)S(=O)(=O)c1c(Cl)cc(-c2cccc(C(=O)O)c2)cc1Cl` [Exp. 3-126, (R)-3′,5′-dichloro-4′-(N-(3-(1-(2,3-dihydro-1H-inden-2-yl)-2-methylpropan-2-ylamino)-2-hydroxypropyl)-N-methylsulfamoyl)biphenyl-3-carboxylic acid], for which the IC50 is not above 0.3 µM.
